Results on 22 compounds are retold here after ChEMBL document CHEMBL3044822, “Carpropamid, a New Fungicide for Rice Blast Control” (1998).

Some results are limits rather than exact numbers.

The subject of the first test is Pyricularia oryzae. The test can be described thus: Fungicidal activity against Magnaporthe oryzae in 7 days old young rice seedlings compound sprayed 1 day after inoculation assessed as efficacy against blast disease measured as lesion level at 200 ppm measured after 7 days of inoculation. The format is functional.
As to `CC[C@]1(C(=O)NC(C)c2ccc(Cl)cc2)[C@H](C)C1(Cl)Cl` (stereo partly drawn) [CARPROPAMID], the Efficacy is recorded as 0%.

As for `CC1(C)C(C(=O)Nc2ccccc2)C1(Cl)Cl` (stereo not drawn), the Efficacy is over 40%.

On to `CC1(C)C(CO)C1(Cl)Cl` (stereo not drawn), for which the Efficacy is recorded as under 5%.

For `CC(NC(=O)C1(C)C(C)(C)C1(Cl)Cl)c1ccc(Cl)cc1` (stereo not drawn), the Efficacy is recorded as 0%.

With `CC1(C)C(C#N)C1(Cl)Cl` (stereo not drawn), the Efficacy is under 30%.

As for `CC1(C)C(COC(=O)Nc2ccccc2)C1(Cl)Cl` (stereo not drawn), the Efficacy is given as under 5%.

In the case of `CCOC(=O)C1C(C)(C)C1(Cl)Cl` (stereo not drawn), the Efficacy was under 5%.

On to `CC1(C)C(C(N)=O)C1(Cl)Cl` (stereo not drawn), for which the Efficacy is recorded as under 20%.

As to `CCC1(CC)C(C(=O)O)C1(Cl)Cl` (stereo not drawn), the Efficacy was under 30%.

On to `CC1(C)C(C(=O)O)C1(Cl)Cl` (stereo not drawn), for which the Efficacy is listed as under 5%.

As to `CC1(C)C(COC(=O)c2ccccc2)C1(Cl)Cl` (stereo not drawn), the Efficacy is listed as under 5%.

With `CC1(C)C(C(=O)Oc2ccccc2)C1(Cl)Cl` (stereo not drawn), the Efficacy is on record as under 20%.

As to `CC(NC(=O)C1(C)C(C)(C)C1(Cl)Cl)c1ccc(Br)cc1` (stereo not drawn), the Efficacy came to 0%.

Consider `CNC(=O)C1C(C)(C)C1(Cl)Cl` (stereo not drawn), for which the Efficacy is recorded as under 40%.

`CC1(C)C(Cl)(Cl)C1(C)C(=O)O` (stereo not drawn): the Efficacy is listed as under 20%.

In the case of `CC(NC(=O)C1(C)C(C)(C)C1(Cl)Cl)c1ccccc1` (stereo not drawn), the Efficacy is listed as under 5%.

For `CC(NC(=O)C1(C(C)C)CC1(Cl)Cl)c1ccc(Cl)cc1` (stereo not drawn), the Efficacy was 0%.

In the next test the test system is Pyricularia oryzae. The test can be described thus: Fungicidal activity against Magnaporthe oryzae in 7 days old young rice seedlings compound sprayed 1 day after inoculation assessed as efficacy against blast disease measured as lesion level at 50 ppm measured after 7 days of inoculation. The class given is functional.
`CC[C@]1(C(=O)N[C@H](C)c2ccc(Cl)cc2)[C@H](C)C1(Cl)Cl` [trans-Carpropamid]: the Efficacy was 0%.

Consider `C[C@H](NC(=O)C1(C)C(C)(C)C1(Cl)Cl)c1ccc(Br)cc1` (stereo in doubt; 17(Sl)), for which the Efficacy is under 20%.

In the case of `C[C@@H](NC(=O)C1(C)C(C)(C)C1(Cl)Cl)c1ccc(Br)cc1` (stereo in doubt; 17(Rd)), the Efficacy is listed as 0%.

As for `CC[C@]1(C(=O)NC(C)c2ccc(Cl)cc2)[C@H](C)C1(Cl)Cl` (mixture of isomers) [CARPROPAMID], the Efficacy is on record as 0%.

For the compound `CC(NC(=O)C1(C)C(C)(C)C1(Cl)Cl)c1ccc(Br)cc1` (stereo not drawn), the Efficacy is recorded as 0%.

For the compound `C[C@@H](NC(=O)C1(C)C(C)(C)C1(Cl)Cl)c1ccc(Br)cc1` (stereo in doubt; 17(Rl)), the Efficacy is listed as under 5%.
